Series [1] deals with T1, β3-adrenergic receptor (Homo sapiens, UniProt P13945).
T1 construct: Full length β3 AR clones (402 amino acids) containing the last 6 amino acids of hβ3-AR are prepared; expressed in transfected cells; host or cells: CHO (Chinese hamster ovary) cells
Description: cAMP accumulation (SPA) in CHO cells transfected with human β3 adrenergic receptor. The class given is cell-based. To be noted: for pEC50: CHO cells expressing human β3-AR, cAMP, 30 min, 37° C., 10^-9 M to 10^-5 M; for IA(β3): maximal response relative to maximal response of isoproterenol at 10^-5 M. How it is done: The ability of compounds of this invention to treat or inhibit disorders related to insulin resistance or hyperglycemia was established with representative compounds of this invention in the following standard pharmacological test procedures, which measured the binding selectivity to the β1, β2, and β3 adrenergic receptors. Binding to the receptors was measured in Chinese Hamster ovary (CHO) cells that were transfected with adrenergic receptors.
Cloning of Human β3-AR Genomic DNA: CDNA was constructed by ligating four polymerase chain reaction (PCR) products using the following primers: an ATG-Narl fragment, sense primer 5′-[…]3′, and anti-sense primer 5′[…]3′; a Narl-Accl fragment, 5′[…]3′ as sense and 5′[…]3′ as anti-sense primer; an Accli-Styl fragment, sense primer 5′[…]3′ and anti-sense primer 5′[…]3′ and a Styl-TAG fragment, with sense primer 5′[…]3′ and anti-sense primer 5′[…]3′. The corresponding primer sequences are described in Mantzoros, C. […] The four fragments are ligated into a pUC 18 plasmid (Gibco-BRL) and sequenced.
Binding Procedure: Clones expressing receptor levels of 70 to 110 fmoles/mg protein were used in the test procedures. CHO cells were grown in 24-well tissue culture plates in Dulbecco's Modified Eagle Media with 10% fetal bovine serum, MEM non-essential amino acids, Penicillin-Streptompycin and Geneticin. On the day of test procedure, growth medium was replaced with preincubation media (Dulbecco's Modified Eagle Media) and incubated for 30 minutes at 37° C. […] Test compounds were tested over a concentration range of 10^−9 M to 10^−5 M for β3 cells and 10^−8 to 10^−4 M for β1 and β2 transfected cells. Isoproterenol (10^−5 M) was used as an internal standard for comparison of activity. Cells were incubated at 37° C. on a rocker for 30 min with the β3 cells and 15 min for β1 and β2 cells. Incubation was stopped with the addition of 0.2N HCl and neutralized with 2.5N NaOH. The plates, containing the cells and neutralized media, were stored at −20 degrees celsius until ready to test for cAMP using the SPA test kit (Amersham).
Data Analysis and Results: Data collected from the SPA test procedure were analyzed as per cent of the maximal isoproterenol response at 10^−5 M. Activity curves were plotted using the SAS statistical and graphics software.
(Cyclic AMP is a second messenger, typically raised through Gs and lowered through Gi signalling.)

Molecules are shown by their SMILES. pEC50: −log10 of the molar value. Bounds are passed on as bounds.

T1 sequence (P13945 whole entry): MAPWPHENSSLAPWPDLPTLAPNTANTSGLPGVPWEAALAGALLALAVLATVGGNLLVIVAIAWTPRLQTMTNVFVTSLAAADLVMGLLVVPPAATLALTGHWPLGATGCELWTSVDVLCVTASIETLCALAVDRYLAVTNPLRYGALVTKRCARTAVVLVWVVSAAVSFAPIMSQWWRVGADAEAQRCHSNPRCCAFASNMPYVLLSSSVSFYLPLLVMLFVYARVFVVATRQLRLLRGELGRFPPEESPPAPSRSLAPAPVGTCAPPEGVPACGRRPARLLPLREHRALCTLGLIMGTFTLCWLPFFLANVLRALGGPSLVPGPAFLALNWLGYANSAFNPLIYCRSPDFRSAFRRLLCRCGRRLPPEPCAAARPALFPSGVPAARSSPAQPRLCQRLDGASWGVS

With `CN1CCN(C2=NC(=O)C(=Cc3ccc(N4CCC(NC[C@H](O)COc5ccc(O)cc5)CC4)cc3)S2)CC1` [Example 24, 5-(4-{4-[(2S)-2-Hydroxy-3-(4-hydroxy-phenoxy)-propylamino]-piperidin-1-yl}-benzylidene)-2-(4-methyl-piperazin-1-yl)-thiazol-4-one], the melting point (as a rule, the temperature, or range, at which the solid turns liquid) is > 210 °C (dec.). In addition, in series [1], the pEC50 (commonly −log10 of the EC50, conventionally taken in molar units) is 5.72 and the “IA(β3)” value is given as 1.0.

With `O=C1N=C(N2CCOCC2)SC1=Cc1ccc(N2CCC(NC[C@H](O)COc3cccc4[nH]c(=O)[nH]c34)CC2)cc1` [Example 18, 4-((2S)-2-Hydroxy-3-{1-[4-(2-morpholin-4-yl-4-oxo-4H-thiazol-5-ylidenemethyl)-phenyl]-piperidin-4-ylamino}-propoxy)-1,3-dihydro-benzoimidazol-2-one], the melting point was > 150 °C (dec.). In addition, in series [1], the negative logarithm of the EC50 (pEC50) was 8.52 and the “IA(β3)” value was 0.89.

Take `CCOC(=O)CCNC1=NC(=O)C(=Cc2ccc(N3CCC(NC[C@H](O)COc4cccc5[nH]c(=O)[nH]c45)CC3)cc2)S1` [Example 8, 3-[5-(4-{4-[(2S)-2-Hydroxy-3-(2-oxo-2,3-dihydro-1H-benzoimidazol-4-yloxy)-propylamino]-piperidin-1-yl}-benzylidene)-4-oxo-4,5-dihydro-thiazol-2-ylamino]-propionic acid ethyl ester]: the melting point was > 120 °C (dec.). Besides, in series [1], the negative-log EC50 (pEC50) is 8.10 and the “IA(β3)” value is given as 0.75.

For `CN(C)CCCNC1=NC(=O)C(=Cc2ccc(N3CCC(NC[C@H](O)COc4ccccc4)CC3)cc2)S1` [Example 26, 2-(3-Dimethylamino-propylamino)-5-{4-[4-((2S)-2-hydroxy-3-phenoxy-propylamino)-piperidin-1-yl]-benzylidene}-thiazol-4-one], the melting point is 166 to 168 °C (dec.). Besides, in series [1], the pEC50 was 6.81 and the “IA(β3)” value was determined as 0.85.

As to `O=C1CCc2c(OC[C@@H](O)CNCCOc3ccc(C=C4SC(N5CCCCC5)=NC4=O)cc3)ccc(O)c2N1` [Example 34, 8-Hydroxy-5-((2S)-2-hydroxy-3-{2-[4-(4-oxo-2-piperidin-1-yl-4H-thiazol-5-ylidenemethyl)-phenoxy]-ethylamino}-propoxy)-3,4-dihydro-1H-quinolin-2-one], the melting point is > 115 °C (dec.). Further, in series [1], the pEC50 was 8.52 and the “IA(β3)” value stood at 1.0.

On to `O=C(O)CC[C@H](NC1=NC(=O)C(=Cc2ccc(N3CCC(NC[C@H](O)COc4cccc5[nH]c(=O)[nH]c45)CC3)cc2)S1)C(=O)O` [Example 29, (2S)-2-[5-(4-{4-[(2S)-2-Hydroxy-3-(2-oxo-2,3-dihydro-1H-benzoimidazol-4-yloxy)-propylamino]-piperidin-1-yl}-benzylidene)-4-oxo-4,5-dihydro-thiazol-2-ylamino]-pentanedioic acid], for which the melting point was > 270 °C (dec.). Besides, in series [1], the negative-log EC50 (pEC50) was 7.77 and the “IA(β3)” value came out at 0.91.

Values taken from patent US6821991B2, “2-substituted thiazolidinones as β-3 adrenergic receptor agonists” (Wyeth, priority 2000, dated 2004).
